# Source: patent publication US20030092770A1, “Combination therapy for treatment of depression” (priority 2002, published 2003)
# Tested on: mouse
# Assay: Forced Swim Test (FST) in the mouse
# Assay type: in vivo
# Method: The duration of immobility during the last four minutes of the six minute test period is scored. A mouse is recorded as immobile when floating motionless or making only those movements necessary to keep its head above water.
# An augmentation of action would be reflected by a reduction in immobility that is greater than the arithimetic sum of the effect of each agent alone. […] Standard statistical tests can be used to determine if this difference is significant. The same general strategy can be applied to the forced swim test as carried out in rats (below) as well as the tail suspension test, also described below.
structure (smiles),measurement,setting,value
CC(CNS(=O)(=O)C(C)C)c1ccc(-c2ccsc2)cc1 (stereo not shown) [Example 392098],minimum effective dose (MED) in the Forced Swim Test,"392098 alone, i.p., mice",0.5 mg/kg
same,immobility of the mouse in the Forced Swim Test,392098 at a dose as low as 25 micrograms/kg combined with a subeffective dose of imipramine (5 mg/kg),statistically significant reduction in immobility
same,effect in the Forced Swim Test,"392098 by itself, low doses (0.025-0.1 mg/kg), mice",no effect
same,shift in the dose response curve of 392098,"administered in combination with a subeffective dose of imipramine, Forced Swim Test, mice",at least 20 fold
